The record followed here is ChEMBL document CHEMBL5257029, “Contemporary developments in the discovery of selective factor Xa inhibitors: A review” (Eur J Med Chem, 2016).

For the experiment, the target named is Coagulation factor X (Homo sapiens, UniProt P00742). In words: Binding affinity to FXa (unknown origin) assessed as inhibition constant.
Chain of Coagulation factor X (P00742 41-179 limits assumed): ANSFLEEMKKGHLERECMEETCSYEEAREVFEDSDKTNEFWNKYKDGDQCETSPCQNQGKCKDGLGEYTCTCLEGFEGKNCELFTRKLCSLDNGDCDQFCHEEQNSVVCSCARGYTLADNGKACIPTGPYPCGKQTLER
Chain of Coagulation factor X (P00742 235-488 limits assumed): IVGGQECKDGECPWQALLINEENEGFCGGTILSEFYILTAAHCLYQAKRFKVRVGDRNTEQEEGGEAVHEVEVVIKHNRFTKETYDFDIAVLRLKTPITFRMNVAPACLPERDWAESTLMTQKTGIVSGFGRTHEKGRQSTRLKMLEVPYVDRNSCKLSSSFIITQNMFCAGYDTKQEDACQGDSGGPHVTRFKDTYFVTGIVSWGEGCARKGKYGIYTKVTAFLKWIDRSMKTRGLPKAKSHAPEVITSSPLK
Take `N=C(N)c1ccc(C[C@@H](NC(=O)NC23CC4CC(CC(C4)C2)C3)C(=O)NCCc2ccccc2)cc1`: the Ki came to 25 nM.
Take `NCc1cccc(-n2nc(C(F)(F)F)cc2C(=O)Nc2ccc(-c3ccccc3S(N)(=O)=O)cc2F)c1`: the Ki was determined as 0.91 nM.
In the case of `CC(C)N1CCC(NS(=O)(=O)CCNC(=O)c2ccc(Cl)s2)CC1`, the Ki turned out to be 2 nM.

For orientation: Ki means a dissociation constant, usually derived from enzyme kinetics or from competition with a known ligand.
